US11020360B2, “Methods, compounds, compositions and vehicles for delivering 3-amino-1-propanesulfonic acid” (Bellus Health, Inc., priority 2006, dated 2021)
Counter-ions that a name gives are not always drawn.

Legend:
[1] = Mouse whole blood stability; assay type: in vitro ADME; details: 37° C.
Description: (§1) Test compounds were incubated for a total of 240 minutes at 37° C. in whole mouse and whole human blood. The compounds were added at time-point 0 and sample aliquots were withdrawn at each time point (usually 0, 60 and 240 minutes). The samples were extracted using protein precipitation. Analysis of extracted samples was achieved using HPLC with MS detection. Several types of HPLC columns and mobile phase were used depending of the polarity of the compound. The compound stability was determined by the % of compound remaining at 240 minutes (peak response of compound at 240 minutes/peak response at 0 minutes×100).

[2] = Human whole blood stability; assay type: in vitro ADME; details: 37° C.
Description: as §1

Row | SMILES | Blood stability (% of compound remaining after 240 min.) Mouse Blood [1] | Blood stability (% of compound remaining after 240 min.) Human Blood [2]
1 | N[C@@H](Cc1ccccc1)C(=O)NCCCS(=O)(=O)O [Compound A1] | + (+: <30%) | –
2 | O=C(NCCCS(=O)(=O)O)[C@@H]1CCCN1 [Compound A3] | ++ (++: 30-75%) | –
3 | CC(C)C[C@H](N)C(=O)NCCCS(=O)(=O)O [Compound A5] | + (+: <30%) | + (+: <30%)
4 | CSCC[C@H](N)C(=O)NCCCS(=O)(=O)O [Compound A6] | + (+: <30%) | ++ (++: 30-75%)
5 | C[C@H](N)C(=O)NCCCS(=O)(=O)O [Compound A8] | ++ (++: 30-75%) | + (+: <30%)
6 | C[C@@H](N)C(=O)NCCCS(=O)(=O)O [Compound A9] | +++ (+++: >75%) | +++ (+++: >75%)
7 | NCC(=O)NCCCS(=O)(=O)O [Compound A10] | ++ (++: 30-75%) | ++ (++: 30-75%)
8 | CCC(C)[C@H](N)C(=O)NCCCS(=O)(=O)O (stereo partly drawn) [Compound A11] | +++ (+++: >75%) | +++ (+++: >75%)
9 | CSCC[C@@H](N)C(=O)NCCCS(=O)(=O)O [Compound A12] | +++ (+++: >75%) | +++ (+++: >75%)
10 | N[C@@H](Cc1c[nH]cn1)C(=O)NCCCS(=O)(=O)O [Compound A13] | +++ (+++: >75%) | +++ (+++: >75%)
11 | CC(C)(N)C(=O)NCCCS(=O)(=O)O [Compound A14] | +++ (+++: >75%) | +++ (+++: >75%)
12 | N[C@H](C(=O)NCCCS(=O)(=O)O)c1ccccc1 [Compound A15] | + (+: <30%) | ++ (++: 30-75%)
13 | N[C@@H](Cc1c[nH]c2ccccc12)C(=O)NCCCS(=O)(=O)O [Compound A16] | ++ (++: 30-75%) | +++ (+++: >75%)
14 | N[C@@H](CCC(=O)OCc1ccccc1)C(=O)NCCCS(=O)(=O)O [Compound A19] | + (+: <30%) | + (+: <30%)
15 | CC(C)(CC(=O)O)CC(=O)NCCCS(=O)(=O)O [Compound B3, 3,3-dimethyl-5-oxo-5-[(3-sulfopropyl)amino]pentanoic Acid Sodium Salt] | ++ (++: 30-75%) | +++ (+++: >75%)
16 | CC(C)(CCC(=O)NCCCS(=O)(=O)O)C(=O)O [Compound B4] | +++ (+++: >75%) | +++ (+++: >75%)
17 | O=C(O)CCC(=O)NCCCS(=O)(=O)O [Compound B5] | +++ (+++: >75%) | +++ (+++: >75%)
18 | CC(=O)Oc1ccc(COC(=O)NCCCS(=O)(=O)O)cc1 [Compound C1, 3-(p-acetyloxybenzyloxycarbonyl)amino-1-propanesulfonic Acid Sodium Salt] | + (+: <30%) | + (+: <30%)
19 | CC(OC(=O)CCC(=O)O)OC(=O)NCCCS(=O)(=O)O (stereo not drawn) [Compound C4] | ++ (++: 30-75%) | +++ (+++: >75%)

Row | SMILES | Blood stability (% of compound remaining after 240 min.) Mouse Blood [1] | Blood stability (% of compound remaining after 240 min.) Human Blood [2]
20 | CC(OC(=O)CCC(=O)OCc1ccccc1)OC(=O)NCCCS(=O)(=O)O (stereo not drawn) [Compound C5] | + (+: <30%) | + (+: <30%)
21 | CC(OC(=O)CC(C)(C)CC(=O)OCc1ccccc1)OC(=O)NCCCS(=O)(=O)O (stereo not drawn) [Compound C7] | + (+: <30%) | +++ (+++: >75%)
22 | CC(OC(=O)CC(C)(C)CC(=O)O)OC(=O)NCCCS(=O)(=O)O (stereo not drawn) [Compound C8] | +++ (+++: >75%) | +++ (+++: >75%)
23 | CC(OC(=O)CCCCC(=O)O)OC(=O)NCCCS(=O)(=O)O (stereo not drawn) [Compound C9] | ++ (++: 30-75%) | ++ (++: 30-75%)
24 | CC(OC(=O)CCCCC(=O)OCc1ccccc1)OC(=O)NCCCS(=O)(=O)O (stereo not drawn) [Compound C10] | + (+: <30%) | + (+: <30%)
25 | CC(OC(=O)CCCC(=O)O)OC(=O)NCCCS(=O)(=O)O (stereo not drawn) [Compound C11] | +++ (+++: >75%) | +++ (+++: >75%)
26 | CC(OC(=O)CCCC(=O)OCc1ccccc1)OC(=O)NCCCS(=O)(=O)O (stereo not drawn) [Compound C12] | + (+: <30%) | ++ (++: 30-75%)
27 | CC(OC(=O)NCCCS(=O)(=O)O)OC(=O)C(C)(C)c1cccs1 (stereo not drawn) [Compound C13] | + (+: <30%) | + (+: <30%)
28 | CC(OC(=O)NCCCS(=O)(=O)O)OC(=O)C(C)(C)c1ccccc1 (stereo not drawn) [Compound C14] | ++ (++: 30-75%) | +++ (+++: >75%)
29 | CC(OC(=O)NCCCS(=O)(=O)O)OC(=O)C(C)(C)C (stereo not drawn) [Compound C15] | + (+: <30%) | ++ (++: 30-75%)
30 | CC(OC(=O)NCCCS(=O)(=O)O)OC(=O)c1ccccc1 (stereo not drawn) [Compound C16, 4-aza-7-methyl-6,8,-dioxa-5,9,-dioxo-9-phenyl-1-nonanesulfonic Acid Sodium Salt] | + (+: <30%) | ++ (++: 30-75%)
31 | CC(OC(=O)NCCCS(=O)(=O)O)OC(=O)C1CCCCC1 (stereo not drawn) [Compound C17] | + (+: <30%) | –
32 | CC(OC(=O)NCCCS(=O)(=O)O)OC(=O)C(C)C (stereo not drawn) [Compound C18] | + (+: <30%) | –
33 | CC(=O)OC(C)OC(=O)NCCCS(=O)(=O)O (stereo not drawn) [Compound C19, 4-aza-7-methyl-6,8,-dioxa-5,9,-dioxo-1-decanesulfonic acid Sodium Salt] | + (+: <30%) | –
34 | CC(C)(C)C(=O)OC(OC(=O)NCCCS(=O)(=O)O)C1CCCCC1 (stereo not drawn) [Compound C20] | + (+: <30%) | ++ (++: 30-75%)
35 | CC(=O)OC(OC(=O)NCCCS(=O)(=O)O)C(C)C (stereo not drawn) [Compound C22] | + (+: <30%) | ++ (++: 30-75%)
36 | CC(C)C(OC(=O)NCCCS(=O)(=O)O)OC(=O)C(C)(C)C (stereo not drawn) [Compound C23] | + (+: <30%) | ++ (++: 30-75%)
37 | CC(=O)OC(OC(=O)NCCCS(=O)(=O)O)C(C)(C)C (stereo not drawn) [Compound C24] | + (+: <30%) | ++ (++: 30-75%)
